Source: patent US20040157863A1, “Triazolopyrimidines” (priority 2001, published 2004)
Like-named read-outs stand apart in the source and are kept apart here.

Assays:
Podosphaera leucotricha = experiment: Podosphaera test (apple)/protective; conditions: apple plants, protective spray, application rate 100 g/ha, evaluation 10 days after inoculation
Protocol: Podosphaera Test (Apple)/Protective
After the spray coating has dried on, the plants are inoculated with an aqueous spore suspension of the apple mildew pathogen Podosphaera leucotricha. The plants are then placed in the greenhouse at about 23° C. and a relative atmospheric humidity of about 70%.
Evaluation is carried out 10 days after the inoculation.

Venturia inaequalis = experiment: Venturia test (apple)/protective; conditions: apple plants, protective spray, application rate 100 g/ha, evaluation 12 days after inoculation
Protocol: Venturia Test (Apple)/Protective
After the spray coating has dried on, the plants are inoculated with an aqueous conidia suspension of the apple scab pathogen Venturia inaequalis and then remain in an incubation cabin at about 20° C. and 100% relative atmospheric humidity for one day.
The plants are then placed in a greenhouse at about 21° C. and a relative atmospheric humidity of about 90%.
Evaluation is carried out 12 days after the inoculation.

Work on `CSc1nc2nc(Cl)c(-c3c(F)cc(F)cc3F)c(N3CCC(C(F)(F)F)CC3)n2n1` [Example 1, 5-chloro-2-(methylsulphanyl)-7-[4-(trifluoromethyl)-1-piperidinyl]-6-(2,4,6-trifluorophenyl)-[1,2,4]triazolo[1,5-a]pyrimidine] yielded a chromatographic logP (logP (HPLC)) of 4.1.

With `C[C@H](Nc1c(-c2c(F)cc(F)cc2F)c(Cl)nc2nc(S(C)(=O)=O)nn12)C(F)(F)F` [Example 2a, 5-chloro-2-(methylsulphonyl)-N-[(1S)-2,2,2-trifluoro-1-methylethyl]-6-(2,4,6-tri-fluorophenyl)[1,2,4]triazolo[1,5-a]pyrimidin-7-amine] the chromatographic logP (logP (HPLC); HPLC) was 2.94.

Work on `C[C@H](Nc1c(-c2c(F)cc(F)cc2F)c(Cl)nc2nc([S+](C)[O-])nn12)C(F)(F)F` (stereo partly drawn) [Example 2b, 5-chloro-2-(methylsulphinyl)-N-[(1S)-2,2,2-trifluoro-1-methylethyl]-6-(2,4,6-trifluorophenyl)[1,2,4]triazolo[1,5-a]pyrimidin-7-amine] yielded a chromatographic logP (logP (HPLC); HPLC) of 2.5.

For `CSc1nc2nc(Cl)c(-c3c(F)cc(F)cc3F)c(Cl)n2n1` [Example 568, 5,7-dichloro-2-(methylsulphanyl)-6-(2,4,6-trifluorophenyl)-[1,2,4]triazolo[1,5-a]pyrimidine], the chromatographic logP (logP (HPLC)) was 3.43.

With `CSc1nc2nc(Cl)c(-c3c(Cl)cccc3Cl)c(Cl)n2n1` [Example 572] the chromatographic logP (logP (HPLC)) was 3.86.

Compound `CSc1nc2nc(O)c(-c3c(F)cc(F)cc3F)c(O)n2n1` [Example 585, 2-methylsulphanyl-6-(2,4,6-trifluoro-phenyl)-[1,2,4]triazolo[1,5-a]pyrimidine-5,7-diol] has a chromatographic logP (logP (HPLC)) of 0.47.

In the case of `CS(=O)(=O)c1nc2nc(Cl)c(-c3c(Cl)cccc3Cl)c(NC3CCCC3)n2n1` [compound 6], the chromatographic logP (logP (HPLC); HPLC (gradient method)) is reported as 3.35.

In the case of `CSc1nc2nc(Cl)c(-c3c(Cl)cccc3Cl)c(N[C@@H](C)C(F)(F)F)n2n1` [compound 8], the chromatographic logP (logP (HPLC); HPLC (gradient method)) is reported as 3.82.

Compound `CSc1nc2nc(Cl)c(-c3c(F)cc(F)cc3F)c(N[C@@H](C)C(F)(F)F)n2n1` [compound 9] has a chromatographic logP (logP (HPLC); HPLC (gradient method)) of 3.58.

Compound `CSc1nc2nc(Cl)c(-c3c(Cl)cccc3Cl)c(N[C@@H](C)C(F)(F)F)n2n1` [drawing 57] has an Efficacy in % (Podosphaera leucotricha) of 100%.

In the case of `CSc1nc2nc(Cl)c(-c3c(F)cc(F)cc3F)c(N[C@@H](C)C(F)(F)F)n2n1` [drawing 58], the Efficacy in % (Podosphaera leucotricha) is reported as 94%.

`CSc1nc2nc(Cl)c(-c3c(Cl)cccc3Cl)c(N[C@@H](C)C(F)(F)F)n2n1` [drawing 60] gave an Efficacy in % (Venturia inaequalis) of 100%.

`CSc1nc2nc(Cl)c(-c3c(F)cc(F)cc3F)c(N[C@@H](C)C(F)(F)F)n2n1` [drawing 61] gave an Efficacy in % (Venturia inaequalis) of 100%.
